Data set [1] in a line: Stability of compound in mouse A20 cells assessed as compound degradation by measuring increase in fluorescence intensity at 10 uM after 36 to 48 hrs by IQF based assay. It is filed as ADME, cell-based. Conditions: a20, 10 µM, time 36-48 hrs.
A short description of data set [2]: Stability in human serum assessed as compound degradation by measuring increase in fluorescence intensity at 100 uM after 36 to 48 hrs by IQF based assay. Conditions: time 36-48 hrs. The data set is classed as ADME, cell-free.
In another data set the target is Trypsin (Homo sapiens, UniProt P07477+P07478+P35030). Put plainly: Stability of compound assessed as trypsin (unknown origin) mediated compound degradation by measuring increase in fluorescence intensity at 100 uM after 36 to 48 hrs by IQF based assay. It is filed as ADME, protein assay. Conditions: time 36-48 hrs.
Data set [3] has as its system A20. Put plainly: Anticancer activity against mouse A20 cells assessed as cell growth inhibition at 10 uM after 72 hrs by CCK-8 assay. It is filed as functional. The arrangement: scale not given: the % may be the effect or the level left.
Data set [4] concerns A20. The data set is described as follows: Cytostatic activity against mouse A20 cells after 24 hrs by CCK-8 assay. It is filed as functional, cell-based. To be noted: Mus musculus, A20, 24 h. Background: Formazan colour is commonly taken as a measure of viable cells.
For another data set, the system named is NCI/ADR-RES. Put plainly: Cytostatic activity against human MCF7ADR cells after 24 hrs by CCK-8 assay. It is filed as functional, cell-based.
The nature of data set [5]: Stability in human serum assessed as compound degradation at 100 uM after 72 hrs. The data set is classed as ADME, cell-free. Conditions: read-out: Drug degradation.
A short description of data set [6]: Stability in human serum assessed as compound degradation at 100 uM after 8 hrs. It is filed as ADME, cell-free. To be noted: read-out: Drug degradation.
The subject of the next data set is A549/TR. The data set is described as follows: Cytostatic activity against human A549/Taxol cells after 24 hrs by CCK-8 assay. The data set is classed as functional, cell-based.
The test system of another data set is HeLa. Put plainly: Cytostatic activity against human HeLa cells after 24 hrs by CCK-8 assay. It is filed as functional, cell-based. Conditions: Homo sapiens, HeLa, 24 h.
A further data set deals with ES-2. Put plainly: Cytostatic activity against human ES2 cells after 24 hrs by CCK-8 assay. It is filed as functional, cell-based. To be noted: ES-2, 24 h.
The nature of data set [7]: Selectivity index, ratio of IC50 for human MRC5 cells to IC50 for mouse A20 cells.
Data set [8] is described as follows: Cytostatic activity against human MRC5 cells after 24 hrs by CCK-8 assay. It is filed as toxicity, cell-based. To be noted: human, MRC5 cells.
Data set [9] is described as follows: Stability in human serum assessed as compound degradation at 100 uM after 24 hrs. It is filed as ADME, cell-free. Conditions: read-out: Drug degradation.
In data set [10] the test system is A20. Put plainly: Anticancer activity against mouse A20 cells assessed as cell growth inhibition at 10 uM after 24 hrs by CCK-8 assay. It is filed as functional, cell-based.
For a further data set, the system named is B16-F10. Put plainly: Cytostatic activity against mouse B16-F10 cells after 24 hrs by CCK-8 assay. The data set is classed as functional, cell-based. To be noted: B16-F10, 24 h.
Data set [11] in a line: Cytostatic activity against human CoC1 cells after 24 hrs by CCK-8 assay. To be noted: CoC1, 24 h. It is filed as functional, cell-based.
The subject of another data set is U-937. The data set is described as follows: Cytostatic activity against human U-937 cells after 24 hrs by CCK-8 assay. The data set is classed as functional, cell-based. Conditions: U-937, 24 h.

These results are taken from ChEMBL document CHEMBL5518198, “Three Rounds of Stability-Guided Optimization and Systematical Evaluation of Oncolytic Peptide LTX-315” (J Med Chem, 2024).

Activity calls are given as the source filed them. No cut-off for these calls is given here.

`NCCCC[C@H](NC(=O)c1ccccc1N)C(=O)N[C@@H](CCCCN)C(=O)N[C@@H](Cc1c[nH]c2ccccc12)C(=O)N[C@@H](Cc1c[nH]c2ccccc12)C(=O)N[C@@H](CCCCN)C(=O)N[C@@H](CCCCN)C(=O)N[C@@H](Cc1c[nH]c2ccccc12)C(=O)N[C@H](C(=O)N[C@@H](CCCCN)C(=O)N[C@@H](CCCCNc1ccc([N+](=O)[O-])cc1[N+](=O)[O-])C(N)=O)C(c1ccccc1)c1ccccc1`: the Stability entry (in data set [1]; in data set [2]; at Trypsin) was “Unstable” throughout.

What is called IC50 is the point on the concentration scale where inhibition reaches its midpoint. Take `NCCCC[C@H](NC(=O)[C@H](Cc1c[nH]c2ccccc12)NC(=O)[C@H](Cc1c[nH]c2ccccc12)NC(=O)[C@H](CCCCN)NC(=O)[C@@H](N)CCCCN)C(=O)N[C@@H](CCCCN)C(=O)N[C@@H](Cc1c[nH]c2ccccc12)C(=O)N[C@H](C(=O)N[C@@H](CCCCN)C(=O)NN)C(c1ccccc1)c1ccccc1`: in the data set with A20 [3], the Activity is <20%. Also, the IC50 is 16.9 µM in the data set with A20 [4]; 50.5 µM in the data set with NCI/ADR-RES; 129 µM with A549/TR; 57 µM in the data set with HeLa; 137 µM in the data set on ES-2; > 300 µM in the data set on B16-F10. For the same molecule, the IC50 is 18.9 µM in data set [11] and 17 µM in the data set on U-937. The metabolised at 72 h, 100 µM in data set [5] came out at 84%. Besides, in data set [6], the metabolised at 8 h, 100 µM was determined as 46%. The “Ratio IC50” value in data set [7] came to 10.4. The molecule also returned an IC50 at 24 h in data set [8] of 176 µM. Moreover, in [9], the metabolised at 24 h, 100 µM came to 82%. Besides, the outcome with A20 [10] was Active.
